The values that follow come from patent US7491518B2, “Method of elevating yield of oligosaccharides containing α-galactosyl and anti-candida compositions” (Amano Enzyme Inc., priority 2000, dated 2009).

Data set [1] deals with toxin produced by Clostridium difficile (Clostridioides difficile, UniProt P16154). The settings on record: cited from earlier work.
The conditions of data set [2]: cited from earlier work.
Data set [3] concerns Candida albicans IFM40009. Description: Persistence of orally administered Candida microorganism in the intestinal tract of mice (viable cell count in cecum and colon). The format is in vivo. Conditions: mouse, 100 mg/animal oral once a day for two weeks, 1 week after forcible administration of Candida suspension. The source says: A Candida microorganism was given forcibly via an oral administration to a mouse on diet with the oligosacchride containing α-galactosyl obtained in EXAMPLE 3 to test the persistence of the Candida microorganism in an intestinal tract, whereby assessing the anti-candida effect of the oligosacchride containing α-galactosyl.
(Methods) A test mouse was a 4-week old male mouse of Crj:CD-1 (ICR) line (NIPPON CHARLES RIVER). A preliminary housing was provided to the animal for 1 week while being allowed to access a basal diet and a distilled water ad libitum. The basal diet was a solid chow for mice (MF: ORIENTAL YEAST). After the preliminary housing, the basal diet and the distilled water were given ad libitum continuously, and a control group fed with a sucrose, a positive control group fed with a raffinose, and a treatment group fed with an oligosacchride containing α-galactosyl were provided (5 animals per group) to conduct a forcible oral administration at 100 mg/animal via an oral gavage for two weeks on a once-a-day basis. […]
The viable cell of the Candida microorganism was counted by applying a Candida microorganism suspension diluted appropriately with a physiological saline onto a Candida GS (EIKEN KAGAKU) plate medium and incubating at 37° C. for 42 to 48 hours followed by counting the colonies formed. […]

The test system of the next data set is Candida microorganism. Conditions: in vitro and in vivo; cited from earlier work.
A further data set deals with pathogenic E.coli 0157. The settings on record: cited from earlier work.

With `OC[C@H]1O[C@H](O[C@@H]2[C@@H](O)[C@@H](O)O[C@H](CO)[C@@H]2O)[C@H](O)[C@@H](O)[C@H]1O` [α-1,3-galactobiose], the “effect on toxin produced by Clostridium difficile” value in data set [1] is listed as “neutralizing effect”.
For the compound `OC[C@H]1O[C@H](OC[C@H]2O[C@H](O[C@]3(CO)O[C@H](CO)[C@@H](O)[C@@H]3O)[C@H](O)[C@@H](O)[C@@H]2O)[C@H](O)[C@@H](O)[C@H]1O` [raffinose], the “effect on atopic dermatitis” value in data set [2] (in vivo) was “exerted an effect”. Besides, in data set [2] (oral administration), the “side effects observed with an antifungal agent (transient exacerbation of rash, digestive organ signs)” value is recorded as “does not cause side effects”. Besides, in data set [3], the “viable cell count of Candida microorganism in the cecum” value is on record as “not changed”. For the same compound, the “viable cell count of Candida microorganism in the colon” value in data set [3] (compared with sucrose control group) is on record as “lower”. Moreover, the “effects on a Candida microorganism” value in the data set on Candida microorganism is “inhibitory and eradicative effects”.
Turning to `OC[C@H]1O[C@H](O[C@@H]2[C@H](O)[C@@H](O)C(O)O[C@@H]2CO)[C@H](O)[C@@H](O)[C@H]1O` (stereo partly drawn) [α-1,4 galactobiose], in the data set with pathogenic E.coli 0157, the “effect on pathogenic E.coli 0157” value is “inhibitory and therapeutic effect”.
